# pIC50: −log10 of the molar value. The source made the active and inactive calls. The rule behind the calls is not given here.
# Columns and labels:
# [1] = target: T1, Enoyl-acyl-carrier protein reductase (Plasmodium falciparum) (UniProt Q965D5); experiment: Inhibition of Plasmodium falciparum Enoyl-ACP reductase using crotonyl-CoA as substrate at 0.25 mM peincubated for 5 mins measured after 10 mins of substrate addition by UV-vis spectrophotometry
# T1 sequence (whole entry): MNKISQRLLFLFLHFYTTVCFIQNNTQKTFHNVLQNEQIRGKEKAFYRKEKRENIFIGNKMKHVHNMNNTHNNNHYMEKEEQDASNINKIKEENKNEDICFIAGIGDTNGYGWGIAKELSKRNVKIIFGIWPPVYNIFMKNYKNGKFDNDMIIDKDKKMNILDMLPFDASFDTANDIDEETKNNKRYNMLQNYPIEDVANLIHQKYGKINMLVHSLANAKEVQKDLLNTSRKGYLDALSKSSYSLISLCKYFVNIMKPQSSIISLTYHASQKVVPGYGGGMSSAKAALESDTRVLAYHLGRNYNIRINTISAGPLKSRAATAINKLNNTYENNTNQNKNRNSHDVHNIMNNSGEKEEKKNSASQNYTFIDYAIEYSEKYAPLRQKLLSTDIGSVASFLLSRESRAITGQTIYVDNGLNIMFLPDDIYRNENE
# Escherichia coli [2] = experiment: Inhibition of Escherichia coli beta-glucuronidase assessed as inhibition of p-nitrophenyl-beta-D-glucuronide hydrolysis at 0.08 mM preincubated for 30 mins measured 30 mins after substrate addition by spectrophotometry
# [3] = target: T1, Enoyl-acyl-carrier protein reductase (Plasmodium falciparum); experiment: (§1) Inhibition of Plasmodium falciparum Enoyl-ACP reductase using crotonyl-CoA as substrate peincubated for 5 mins measured after 10 mins of substrate addition by UV-vis spectrophotometry
# Escherichia coli [4] = experiment: Inhibition of Escherichia coli beta-glucuronidase assessed as inhibition of p-nitrophenyl-beta-D-glucuronide hydrolysis at 0.05 mM preincubated for 30 mins measured 30 mins after substrate addition by spectrophotometry
# Escherichia coli [5] = experiment: Inhibition of Escherichia coli beta-glucuronidase assessed as inhibition of p-nitrophenyl-beta-D-glucuronide hydrolysis at 0.20 mM preincubated for 30 mins measured 30 mins after substrate addition by spectrophotometry
# [6] = Inhibition of Escherichia coli beta-glucuronidase assessed as inhibition of p-nitrophenyl-beta-D-glucuronide hydrolysis preincubated for 30 mins measured 30 mins after substrate addition by spectrophotometry
# [7] = target: T2, Enoyl-acyl-carrier protein reductase (Plasmodium falciparum, UniProt Q965D5); experiment: as §1
# T2 sequence (Q965D5 whole entry): T1 sequence (whole entry)
# [8] = target: T1, Enoyl-acyl-carrier protein reductase (Plasmodium falciparum); settings: 0.1 mM
# Description: Inhibition of Plasmodium falciparum Enoyl-ACP reductase using crotonyl-CoA as substrate at 0.1 mM peincubated for 5 mins measured after 10 mins of substrate addition by UV-vis spectrophotometry
# Escherichia coli [9] = experiment: Ratio of D-saccharic acid-1,4-lactone IC50 to compound IC50 for Escherichia coli beta-glucuronidase
# Escherichia coli [10] = experiment: Inhibition of Escherichia coli beta-glucuronidase assessed as inhibition of p-nitrophenyl-beta-D-glucuronide hydrolysis at 0.10 mM preincubated for 30 mins measured 30 mins after substrate addition by spectrophotometry
# [11] = target: T1, Enoyl-acyl-carrier protein reductase (Plasmodium falciparum); experiment: Inhibition of Plasmodium falciparum Enoyl-ACP reductase using crotonyl-CoA as substrate at 0.025 mM peincubated for 5 mins measured after 10 mins of substrate addition by UV-vis spectrophotometry
# [12] = target: T1, Enoyl-acyl-carrier protein reductase (Plasmodium falciparum); settings: 0.05 mM
# Description: Inhibition of Plasmodium falciparum Enoyl-ACP reductase using crotonyl-CoA as substrate at 0.05 mM peincubated for 5 mins measured after 10 mins of substrate addition by UV-vis spectrophotometry
# [13] = target: T1, Enoyl-acyl-carrier protein reductase (Plasmodium falciparum); experiment: Inhibition of Plasmodium falciparum Enoyl-ACP reductase using crotonyl-CoA as substrate at 0.15 mM peincubated for 5 mins measured after 10 mins of substrate addition by UV-vis spectrophotometry
Structure (SMILES),inhibition [1],inhibition (Escherichia coli [5]),pIC50 [6],also measured
CC1(C)C=Cc2c(cc3occ(-c4ccc(O)cc4)c(=O)c3c2O)O1,12.6%,–,–,inhibition (Escherichia coli [2]): 17.6%
CCCCC/C=C/CCCCCCC[C@@H](O)[C@@H](O)[C@H](CO)NC(=O)[C@H](O)CCCCCCCCCCCCCCCCCCCCCC,inactive,–,–,inhibition (Escherichia coli [2]): 1.7%; inhibition [3]: inactive
C[C@@H]1CC[C@]2(C(=O)O)CC[C@]3(C)C(=CC[C@@H]4[C@@]5(C)C[C@@H](O)[C@H](OC(=O)/C=C/c6ccc(O)cc6)C(C)(C)[C@@H]5CC[C@]43C)[C@@H]2[C@]1(C)O,3.9%,–,–,inhibition (Escherichia coli [2]): 15.9%
O=C(O)[C@@H](O)[C@H]1OC(=O)[C@H](O)[C@H]1O,–,–,–,inhibition (Escherichia coli [4]): 99.5%
O=C(O)c1ccc(O)c(O)c1,–,23.5%,–,–
O=c1cc(-c2ccc(O)cc2)oc2cc(O)cc(O)c12,–,15.7%,–,–
COc1c(-c2ccc(O)c(O)c2)oc2cc(O)cc(O)c2c1=O [3-O-METHYLQUERCETIN],–,85.2%,4.35,pIC50 [7]: 4.45; inhibition [8]: 88.2%
O=c1c(O)c(-c2ccc(O)cc2)oc2cc(O)cc(O)c12 [KAEMPFEROL],6.5%,87.5%,4.56,–
CC1=C[C@H](c2cc(-c3coc4cc(O)cc(O)c4c3=O)ccc2O)[C@](C)(/C=C/c2cc(-c3coc4cc(O)cc(O)c4c3=O)ccc2O)CC1 [MUCUSISOFLAVONE A],inactive,98.7%,6.17,Ratio IC50 (Escherichia coli [9]): 71; inhibition [3]: inactive
CC(C)=C[C@@H]1C[C@](C)(/C=C/c2cc(-c3coc4cc(O)cc(O)c4c3=O)ccc2O)Oc2ccc(-c3coc4cc(O)cc(O)c4c3=O)cc21 [MUCUSISOFLAVONE B],inactive,–,4.86,inhibition (Escherichia coli [10]): 70.1%; inhibition [3]: inactive
CC(C)=CCc1cc(-c2coc3c(C(C=C(C)C)c4cc(-c5coc6cc(O)cc(O)c6c5=O)ccc4O)c(O)cc(O)c3c2=O)ccc1O (centres undefined) [MUCUSISOFLAVONE C],–,–,5.51,inhibition [11]: 89.1%; inhibition (Escherichia coli [10]): 94%; pIC50 [7]: 5.11
Oc1cc(Cl)ccc1Oc1ccc(Cl)cc1Cl [TRICLOSAN],–,–,–,inhibition [12]: 99.5%; pIC50 [7]: 6.70
CC(C)=CCc1c(O)cc2occ(-c3ccc(O)cc3)c(=O)c2c1O [WIGHTEONE],–,97.3%,5.39,inhibition [13]: 42.6%
COc1ccc(C(=O)O)cc1 [p-ANISIC ACID],inactive,66.2%,3.91,inhibition [3]: inactive

# Reference: ChEMBL document CHEMBL1811896, “Isoflavone dimers and other bioactive constituents from the figs of Ficus mucuso” (J Nat Prod, 2011)
